Where a name gives a salt, the structure may show the parent alone.
Columns and labels:
[1] = tested on: AML12 cells; assay: Pathway of NRH-induced NAD+ synthesis: intracellular metabolites and pathway inhibitors; format: cell-based; details: for Effect of adenosine kinase inhibitor on NRH-mediated NAD+ synthesis: AML12 cells, 5-IT 10 mM for 1 hour prior to NRH, NAD measured 1 hour later
Description: FIG. 4. NRH leads to NAD+ biosynthesis through an adenosine kinase dependent path. AML12 cells were treated with an adenosine kinase inhibitor (5-IT; […]) for 1 hour prior to NRH treatment at the doses indicated. Then, 1 hour later, acidic extracts were obtained to measure NAD levels. All values in the figure are expressed as mean+/−SEM of 3 independent experiments. * indicates statistical difference at p<0.05 vs. the respective vehicle treated group.
(§1) Levels of NRH and other NAD-related metabolites in biological samples were obtained by using a cold liquid-liquid extraction using a mixture of methanol:water:chloroform in 5:3:5 (v/v), from which the polar phase was recovered for hydrophilic interaction ultra-high performance liquid chromatography mass spectrometry (UHPLC-MS) analysis. The UHPLC consisted of a binary pump, a cooled autosampler, and a column oven (DIONEX Ultimate 3000 UHPLC+ Focused, Thermo Scientific), connected to a triple quadrupole spectrometer (TSQ Vantage, Thermo Scientific) equipped with a heated electrospray ionisation (H-ESI) source. Of each sample, 2 μL were injected into the analytical column (2.1 mm×150 mm, 5 μm pore size, 200 Å HILICON iHILIC®-Fusion(P)), guarded by a pre-column (2.1 mm×20 mm, 200 Å HILICON iHILIC®-Fusion(P) Guard Kit) operating at 35° C. The mobile phase (10 mM ammonium acetate at pH 9, A, and acetonitrile, B) was pumped at 0.25 mL/min flow rate over a linear gradient of decreasing organic solvent (0.5-16 min, 90-25% B), followed by re-equilibration for a total run time of 30 min. The MS operated in positive mode at 3500 V with multiple reaction monitoring (MRM). The software Xcalibur v4.1.31.9 (Thermo Scientific) was used for instrument control, data acquisition and processing. Retention time and mass detection was confirmed by authentic standards.
A path in which NRH would be converted to NMNH, then to NADH and this would be finally oxidized to NAD+.
In order to understand the exact path by which NRH synthesizes NAD+, we initially evaluated whether NRH, could be transported into the cell by equilibrative nucleoside transporters (ENTs).
(§2) The action of NRH was also NAMPT-independent, based on experiments using FK866, a NAMPT inhibitor. If NRH led to NAD+ synthesis via the formation of NMNH, this hypothetical path would require the phosphorylation of NRH into NMNH. Given the essential and rate-limiting role of NRK1 in NR phosphorylation, we wondered whether the ability of NRH to boost NAD+ levels was NRK1 dependent. To answer this question, we evaluated NRH action in primary hepatocytes from either control or NRK1 knockout (NRK1KO) mice. […] Further, they rule out the possibility that NRH-induced NAD+ […] is driven by NRH oxidation into NR.
Considering the molecular structure of NRH, we reasoned that an alternative nucleoside kinase could be responsible for the phosphorylation of NRH. […] The role of AK in NRH-mediated NAD+ synthesis was confirmed using a second, structurally different, AK inhibitor, ABT-702. Metabolomic analyses further confirmed that upon inhibition of AK, the generation of NMNH, NADH and NAD+ was fully blunted, even if NRH was effectively entering the cell.
As a follow-up step, NMNAT enzymes could catalyze the transition from NMNH to NADH. […] Yet, part of the NRH action remained after gallotannin treatment when NRH was used at maximal doses.

[2] = Circulating NRH, NR and NAM in mice after intraperitoneal injection; format: in vivo; details: mice, IP 500 mg/kg
From the text: as §1
(§3) The above results prompted us to test whether NRH could act as an effective NAD+ precursor in vivo. For this, we first intraperitoneally (IP) injected mice with either NR or NRH (500 mg/kg). […] Importantly, NRH was detectable in circulation after IP injection.

[3] = Stability of NRH or NR spiked in isolated mouse plasma; format: in vitro ADME; details: 2 h of incubation
From the text: as §1

[4] = tested on: mice; assay: Tissue NAD+ levels in mice after intraperitoneal injection; format: in vivo; details: IP 500 mg/kg, after 1 h
Description: as §3

[5] = Plasma NRH, NR and NAM in mice after oral administration; format: in vivo; details: mouse, in vivo, po
From the text: as §1
Oral administration of NRH led to very similar results to those observed after IP administration. […] NRH was detectable in plasma 1 h after oral administration. In contrast, NR levels were undetectable at 1 h after NR administration.

[6] = tested on: primary hepatocytes from control or NRK1 knockout (NRK1KO) mice; assay: NAD+ levels in primary hepatocytes from control or NRK1 knockout mice; format: cell-based; details: 1 hour of treatment
From the text: as §2

Q: With Nc1ncnc2nc(-c3ccc(N4CCOCC4)nc3)cc(-c3cccc(Br)c3)c12 [ABT-702] as the compound, how does the “Effect of adenosine kinase inhibitor on NRH-mediated NAD+ synthesis” value [1] read?
A: confirmed

Q: For NC(=O)c1ccc[n+]([C@@H]2O[C@H](CO)[C@H](O)C2O)c1 (stereo partly drawn) [NR, 1-b-D-ribofuranosyl-3-pyridinecarboxamide salt, reference compound], which “NAM levels in circulation” value [2] is on record?
A: highly increased

Q: What about the “Compound levels in isolated mouse plasma” value [3] of the same compound?
A: decayed

Q: What about the “Generation of NAM in isolated mouse plasma” value [3] of the same compound?
A: increase in NAM

Q: And the “NAD+ levels in kidney” value [4]?
A: increased NAD+ levels

Q: What about the “NAD+ levels in liver” value [4] of the same compound?
A: increased NAD+ levels

Q: What about the “NAD+ levels in muscle” value [4] of the same compound?
A: increased NAD+ levels

Q: And the “Circulating NAM after NR treatment relative to NRH treatment” value ([5]; C57BL/6NTac, 1 h)?
A: ~4 fold

Q: And the “Administered compound in plasma” value [5]?
A: undetectable

Q: And the “Circulating NAM” value [5]?
A: large increases

Q: And the “Intracellular detection of NRH and NMNH” value ([1]; 5 minutes after treatment)?
A: not

Q: And the “NAD+ levels in NRK1KO derived primary hepatocytes” value [6]?
A: failed to increase NAD+ levels

Q: What does the source list for O=C(OC[C@H]1O[C@@H](OC(=O)c2cc(O)c(O)c(OC(=O)c3cc(O)c(O)c(O)c3)c2)[C@H](OC(=O)c2cc(O)c(O)c(OC(=O)c3cc(O)c(O)c(O)c3)c2)[C@@H](OC(=O)c2cc(O)c(O)c(OC(=O)c3cc(O)c(O)c(O)c3)c2)[C@@H]1OC(=O)c1cc(O)c(O)c(OC(=O)c2cc(O)c(O)c(O)c2)c1)c1cc(O)c(O)c(OC(=O)c2cc(O)c(O)c(O)c2)c1 [gallotannin]?
A: Effect of NMNAT inhibitor on NAD+ synthesis after NRH treatment ([1]; NRH at maximal doses (0.5 mM), part of NRH action remained): largely compromised NAD+ synthesis; Effect of NMNAT inhibitor on NRH action ([1]; NRH at submaximal doses): totally blocked

Q: Which results are given for Nc1ncnc2c1c(I)cn2[C@@H]1O[C@H](CO)[C@@H](O)[C@H]1O [5-IT, 5-iodotubercidin]?
A: Effect of adenosine kinase inhibitor on NRH-mediated NAD+ synthesis [1]: fully ablated the action of NRH; Formation of NR and NMN after NRH treatment under AK inhibitor ([1]; metabolomic analyses): prevented the formation of NR and NMN

— US20230138327A1, “COMPOSITIONS AND METHODS CONTAINING REDUCED NICOTINAMIDE RIBOSIDE FOR PREVENTION AND TREATMENT OF PANCREATIC DISEASES AND CONDITIONS” (SOCIETE DES PRODUITS NESTLE S.A., priority 2020, published 2023)
